Patent publication US20030083342A1, “Combination of organic compounds” (priority 2002, published 2003)
Read-outs that look alike come from different tables or passages of the source.

Legend:
[1] = tested on: response to Ang I; assay: Response to injected Ang I in pretreated Wistar Kyoto rats; format: in vivo; conditions: Wistar Kyoto rats pretreated with (+)-fadrozole hydrochloride or valsartan 5 mg/kg/d; comparison of the two pretreatments
Experimental: The rats are divided into 5 groups: group 1, control (n=40); Group 2, valsartan (5 mg/kg/d; n=40); Group 3, the (+)-enantiomer of the hydrochloride of fadrozole (n=30); Group 4, a combination of the (+)-enantiomer of the hydrochloride of fadrozole and valsartan (5 mg/kg/d); n=30) and Group 5, valsartan (50 mg/kg/d; n=30). The drugs are administered in drinking fluid.

[2] = tested on: pressor effect of Ang II; conditions: Ang II at 1 mg/kg, normotensive rats, cited from earlier work

Structure (SMILES)	response to Ang I injected [1]	reduction of the pressor effect of Ang II ([2]; valsartan 5 mg/kg/d) [%]	reduction of the pressor effect of Ang II ([2]; valsartan 50 mg/kg/d) [%]
Cl.N#Cc1ccc([C@H]2CCCc3cncn32)cc1 [(+)-enantiomer of the hydrochloride of fadrozole]	similar	–	–
CCCCC(=O)N(Cc1ccc(-c2ccccc2-c2nnn[nH]2)cc1)[C@H](C(=O)O)C(C)C [valsartan, (S)-N-(1-carboxy-2-methylprop-1-yl)-N-pentanoyl-N-[2′(1H-tetrazol-5-yl)biphenyl-4-yl-methyl]amine]	similar	49	73
